Assay results: patent publication US11040970B2, “VMAT2 inhibitor compounds and compositions thereof” (Neurocrine Biosciences, Inc., priority 2017, dated 2021)

target: VMAT2 (Homo sapiens (Human), UniProt Q05940); experiment: VMAT2 radioligand binding assay: competition against 3H-dihydrotetrabenezine on human platelet homogenate (modified procedure); settings: 10 nM 3H-dihydrotetrabenezine, 25° C., 90 minutes
Procedure: Examples of techniques for determining the capability of a compound to inhibit VMAT2 are provided below. The procedure is adapted from that described previously (see, e.g., Near, (1986), Mol. Pharmacol. 30: 252-57; Teng, et al., J. Neurochem. 71, 258-65, 1998). Homogenates from human platelets or Sprague-Dawley rat forebrain were prepared by homogenization and then washed by centrifugation as described previously (see, e.g., Hoare et al., (2003) Peptides 24:1881-97). […] Following incubation at 25° C. for two hours, bound radioligand was collected by rapid filtration onto GF/B glass fiber filters using a Unifilter-96 Harvester (PerkinElmer). Filter plates were pre-treated for 10 minutes with 0.1% polyethylenimine, and following harvesting the filter plates were washed with 800 μl VMAT2 binding buffer. Bound radioligand was quantified by scintillation counting using a Topcount NXT (PerkinElmer).
Following incubation at 25° C. for 90 minutes, bound radioligand was collected by rapid filtration onto GF/B glass fiber filters using a Unifilter-96 Harvester (PerkinElmer). Filter plates were pre-treated with 0.1% polyethylenimine and allowed to dry overnight, and following harvesting the filter plates were washed with 800 μl VMAT2 binding buffer. Bound radioligand was quantified by scintillation counting using a Topcount NXT (PerkinElmer).

Sequence of VMAT2 (Q05940 whole entry): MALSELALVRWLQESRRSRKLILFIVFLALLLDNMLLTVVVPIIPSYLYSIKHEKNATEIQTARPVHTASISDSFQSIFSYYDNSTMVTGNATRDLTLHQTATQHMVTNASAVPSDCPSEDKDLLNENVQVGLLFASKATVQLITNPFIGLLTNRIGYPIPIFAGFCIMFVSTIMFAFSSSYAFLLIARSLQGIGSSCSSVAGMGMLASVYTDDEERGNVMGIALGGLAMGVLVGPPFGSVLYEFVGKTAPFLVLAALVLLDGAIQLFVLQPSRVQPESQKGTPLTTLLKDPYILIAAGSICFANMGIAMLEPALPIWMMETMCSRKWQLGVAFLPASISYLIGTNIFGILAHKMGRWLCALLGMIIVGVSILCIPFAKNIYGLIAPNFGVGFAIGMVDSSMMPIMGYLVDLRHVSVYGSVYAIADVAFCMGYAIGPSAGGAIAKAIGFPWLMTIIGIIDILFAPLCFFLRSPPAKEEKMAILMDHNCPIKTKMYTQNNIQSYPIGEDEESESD

Row | SMILES | Ki [µM]
1 | COc1cc2c(cc1OCCCF)CCN1C[C@@H](CC(C)(C)C)N(C)C[C@@H]21 [Compound 12-1, (3R,11bR)-3-(2,2-dimethylpropyl)-9-(3-fluoropropoxy)-10-methoxy-2-methyl-1H,2H,3H,4H,6H,7H,11bH-piperazino[2,1-a]isoquinoline] | 0.01 to 0.5
2 | COc1cc2c(cc1OCCC(F)(F)F)CCN1C[C@@H](CC(C)(C)C)N(C)C[C@H]21 [Compound 11-5, (3R,11bS)-3-(2,2-dimethylpropyl)-10-methoxy-2-methyl-9-(3,3,3-trifluoropropoxy)-1H,2H,3H,4H,6H,7H,11bH-piperazino[2,1-a]isoquinoline] | < 0.01
3 | CCCOc1cc2c(cc1OC)[C@H]1CN(C)[C@H](CC(C)C)CN1CC2 [Compound 5-6, (3R,11bS)-10-methoxy-2-methyl-3-(2-methylpropyl)-9-propoxy-1H,2H,3H,4H,6H,7H,11bH-piperazino[2,1-a]isoquinoline] | < 0.01
4 | COc1cc2c(cc1OCCCC(F)(F)F)CCN1C[C@@H](CC3CCC3)N(C)C[C@H]21 [Compound 8-7, (3R,11bS)-3-(cyclobutylmethyl)-10-methoxy-2-methyl-9-(4,4,4-trifluorobutoxy)-1H,2H,3H,4H,6H,7H,11bH-piperazino[2,1-a]isoquinoline] | 0.01 to 0.5
5 | COc1cc2c(cc1OC(C)C)CCN1C[C@@H](CC(C)C)N(C)C[C@H]21 [Compound 5-2, (3R,11bS)-10-methoxy-2-methyl-3-(2-methylpropyl)-9-(propan-2-yloxy)-1H,2H,3H,4H,6H,7H,11bH-piperazino[2,1-a]isoquinoline] | 0.01 to 0.5
6 | COc1cc2c(cc1OCC1CCC1)CCN1C[C@@H](CC3CCC3)N(C)C[C@H]21 [Compound 8-6, (3R,11bS)-9-(cyclobutylmethoxy)-3-(cyclobutylmethyl)-10-methoxy-2-methyl-1H,2H,3H,4H,6H,7H,11bH-piperazino[2,1-a]isoquinoline] | < 0.01
7 | CCOc1cc2c(cc1OC)[C@H]1CN(C)[C@H](CC(C)C)CN1CC2 [Compound 5-1, (3R,11bS)-9-ethoxy-10-methoxy-2-methyl-3-(2-methylpropyl)-1H,2H,3H,4H,6H,7H,11bH-piperazino[2,1-a]isoquinoline] | < 0.01
8 | COCCOc1cc2c(cc1OC)[C@H]1CN(C)[C@H](CC(C)(C)C)CN1CC2 [Compound 11-11, (3R,11bS)-3-(2,2-dimethylpropyl)-10-methoxy-9-(2-methoxyethoxy)-2-methyl-1H,2H,3H,4H,6H,7H,11bH-piperazino[2,1-a]isoquinoline] | 0.01 to 0.5
9 | COc1cc2c(cc1OCCCC(F)(F)F)CCN1C[C@@H](CC(C)(C)C)N(C)C[C@H]21 [Compound 11-9, (3R,11bS)-3-(2,2-dimethylpropyl)-10-methoxy-2-methyl-9-(4,4,4-trifluorobutoxy)-1H,2H,3H,4H,6H,7H,11bH-piperazino[2,1-a]isoquinoline] | < 0.01
10 | COc1cc2c(cc1OC1CC1)CCN1C[C@@H](CC(C)C)N(C)C[C@H]21 [Compound 5-5, (3R,11bS)-9-cyclopropoxy-10-methoxy-2-methyl-3-(2-methylpropyl)-1H,2H,3H,4H,6H,7H,11bH-piperazino[2,1-a]isoquinoline] | 0.01 to 0.5
11 | COc1cc2c(cc1OC1CCC1)CCN1C[C@@H](CC(C)C)N(C)C[C@H]21 [Compound 5-16, (3R,11bS)-9-cyclobutoxy-10-methoxy-2-methyl-3-(2-methylpropyl)-1H,2H,3H,4H,6H,7H,11bH-piperazino[2,1-a]isoquinoline] | < 0.01
12 | COc1cc2c(cc1OCC1CC1)CCN1C[C@@H](CC(C)C)N(C)C[C@H]21 [Compound 5-15, (3R,11bS)-9-(cyclopropylmethoxy)-10-methoxy-2-methyl-3-(2-methylpropyl)-1H,2H,3H,4H,6H,7H,11bH-piperazino[2,1-a]isoquinoline] | < 0.01
13 | COc1cc2c(cc1OCC1CC1)CCN1C[C@@H](CC(C)(C)C)N(C)C[C@H]21 [Compound 11-7, (3R,11bS)-9-(cyclopropylmethoxy)-3-(2,2-dimethylpropyl)-10-methoxy-2-methyl-1H,2H,3H,4H,6H,7H,11bH-piperazino[2,1-a]isoquinoline] | < 0.01
14 | COc1cc2c(cc1OCC(C)C)CCN1C[C@@H](CC(C)C)N(C)C[C@H]21 [Compound 5-9, (3R,11bS)-10-methoxy-2-methyl-9-(2-methylpropoxy)-3-(2-methylpropyl)-1H,2H,3H,4H,6H,7H,11bH-piperazino[2,1-a]isoquinoline] | < 0.01
15 | COc1cc2c(cc1OCC1CC1)CCN1C[C@@H](CC3CCC3)N(C)C[C@H]21 [Compound 8-5, (3R,11bS)-3-(cyclobutylmethyl)-9-(cyclopropylmethoxy)-10-methoxy-2-methyl-1H,2H,3H,4H,6H,7H,11bH-piperazino[2,1-a]isoquinoline] | 0.01 to 0.5
16 | COc1cc2c(cc1OC1CCCC1)CCN1C[C@@H](CC(C)C)N(C)C[C@H]21 [Compound 5-7, (3R,11bS)-9-(cyclopentyloxy)-10-methoxy-2-methyl-3-(2-methylpropyl)-1H,2H,3H,4H,6H,7H,11bH-piperazino[2,1-a]isoquinoline] | < 0.01
17 | COc1cc2c(cc1OC)[C@@H]1CN(CC(C)C)[C@H](CC(C)C)CN1CC2 [Compound 3-3, (3R,11bR)-9,10-dimethoxy-2,3-bis(2-methylpropyl)-1H,2H,3H,4H,6H,7H,11bH-piperazino[2,1-a]isoquinoline] | > 0.5
18 | COc1cc2c(cc1OC)[C@@H]1CN(C)[C@H](CC(C)(C)C)CN1CC2 [Compound 12-2, (3R,11bR)-3-(2,2-dimethylpropyl)-9,10-dimethoxy-2-methyl-1H,2H,3H,4H,6H,7H,11bH-piperazino[2,1-a]isoquinoline] | > 0.5
19 | CCN1C[C@@H]2c3cc(OC)c(OC)cc3CCN2C[C@H]1CC(C)C [Compound 2-1, (3R,11bS)-2-ethyl-9,10-dimethoxy-3-(2-methylpropyl)-1H,2H,3H,4H,6H,7H,11bH-piperazino[2,1-a]isoquinoline] | 0.01 to 0.5
20 | COc1cc2c(cc1OCCCF)CCN1C[C@@H](CC3CCC3)N(C)C[C@H]21 [Compound 8-1, (3R,11bS)-3-(cyclobutylmethyl)-9-(3-fluoropropoxy)-10-methoxy-2-methyl-1H,2H,3H,4H,6H,7H,11bH-piperazino[2,1-a]isoquinoline] | 0.01 to 0.5
21 | COc1cc2c(cc1OCCF)CCN1C[C@@H](CC(C)C)N(C)C[C@H]21 [Compound 5-4, (3R,11bS)-9-(2-fluoroethoxy)-10-methoxy-2-methyl-3-(2-methylpropyl)-1H,2H,3H,4H,6H,7H,11bH-piperazino[2,1-a]isoquinoline] | 0.01 to 0.5
22 | COc1cc2c(cc1OCCCF)CCN1C[C@@H](CC(C)C)N(C)C[C@@H]21 [Compound 6-2, (3R,11bR)-9-(3-fluoropropoxy)-10-methoxy-2-methyl-3-(2-methylpropyl)-1H,2H,3H,4H,6H,7H,11bH-piperazino[2,1-a]isoquinoline] | > 0.5
23 | COc1cc2c(cc1OCCCC#N)CCN1C[C@@H](CC(C)C)N(C)C[C@H]21 [Compound 5-12, 4-{[(3R,11bS)-10-methoxy-2-methyl-3-(2-methylpropyl)-1H,2H,3H,4H,6H,7H,11bH-piperazino[2,1-a]isoquinolin-9-yl]oxy}butanenitrile] | 0.01 to 0.5
24 | COc1cc2c(cc1OC(C)C)CCN1C[C@@H](CC(C)(C)C)N(C)C[C@H]21 [Compound 11-13, (3R,11bS)-3-(2,2-dimethylpropyl)-10-methoxy-2-methyl-9-(propan-2-yloxy)-1H,2H,3H,4H,6H,7H,11bH-piperazino[2,1-a]isoquinoline] | < 0.01
25 | COc1cc2c(cc1OCC1CC1(F)F)CCN1C[C@@H](CC(C)C)N(C)C[C@H]21 (stereo partly drawn) [Compound 5-18, (3R,11bS)-9-[(2,2-difluorocyclopropyl)methoxy]-10-methoxy-2-methyl-3-(2-methylpropyl)-1H,2H,3H,4H,6H,7H,11bH-piperazino[2,1-a]isoquinoline] | < 0.01
26 | COc1cc2c(cc1OCCCCF)CCN1C[C@@H](CC(C)(C)C)N(C)C[C@H]21 [Compound 11-10, (3R,11bS)-3-(2,2-dimethylpropyl)-9-(4-fluorobutoxy)-10-methoxy-2-methyl-1H,2H,3H,4H,6H,7H,11bH-piperazino[2,1-a]isoquinoline] | < 0.01
27 | COc1cc2c(cc1OCC1CCC1)CCN1C[C@@H](CC(C)C)N(C)C[C@H]21 [Compound 5-11, (3R,11bS)-9-(cyclobutylmethoxy)-10-methoxy-2-methyl-3-(2-methylpropyl)-1H,2H,3H,4H,6H,7H,11bH-piperazino[2,1-a]isoquinoline] | < 0.01
28 | COc1cc2c(cc1OC)[C@@H]1CN(C)[C@H](CC(C)C)CN1CC2 [Compound 3-2, (3R,11bR)-9,10-dimethoxy-2-methyl-3-(2-methylpropyl)-1H,2H,3H,4H,6H,7H,11bH-piperazino[2,1-a]isoquinoline] | > 0.5
29 | COc1cc2c(cc1OCC1CC1(F)F)CCN1C[C@@H](CC3CCC3)N(C)C[C@H]21 (stereo partly drawn) [Compound 8-3, (3R,11bS)-3-(cyclobutylmethyl)-9-[(2,2-difluorocyclopropyl)methoxy]-10-methoxy-2-methyl-1H,2H,3H,4H,6H,7H,11bH-piperazino[2,1-a]isoquinoline] | 0.01 to 0.5
30 | COc1cc2c(cc1OCCCCF)CCN1C[C@@H](CC(C)C)N(C)C[C@H]21 [Compound 5-14, (3R,11bS)-9-(4-fluorobutoxy)-10-methoxy-2-methyl-3-(2-methylpropyl)-1H,2H,3H,4H,6H,7H,11bH-piperazino[2,1-a]isoquinoline] | < 0.01
